Results as given in publication PMC4310329, “The length of a lantibiotic hinge region has profound influence on antimicrobial activity and host specificity” (Frontiers in Microbiology, 2015).

Tests used:
E. faecalis VE14089 = experiment: Agar well diffusion assay; type: cell-based, Enterococcus faecalis; details: estimated from halo diameter by nisin standard curve, relative to wt
Protocol: (§1) L. lactis strains were cultured in M17 broth supplemented with 0.5% (w/v) glucose (GM17) or GM17 agar for genetic manipulation or in minimal expression medium (MEM) for protein expression at 30°C (Rink et al., [2005]). E. faecalis, S. aureus, S. pneumonia, and L. monocytogenes were grown in GM17 at 37°C or GM17 agar at different temperatures for agar diffusion assay. M. luteus was grown in Luria-Bertani broth shaken (200 rpm) at 30°C or LB agar at 20°C for agar diffusion assay. Bacillus strains were cultured in Brain Heart Infusion (BHI) shaken (200 rpm) or BHI agar at different temperatures for agar diffusion assay.
(§2) For the agar well diffusion assay, the same cultures as in the MIC value test were used and diluted 200 times with solid media. Identical sizes of wells (7.5 mm diameter) were made and 2 μg of hinge region analogs dissolved in 20 μl 0.05% acetic acid were added. The plates were incubated at different temperatures for at least 1 day until apparent halos appeared. For activity test at low temperature, the indicators were diluted in the same way but poured into smaller plates (52 mm diameter). The plates were incubated at 4°C overnight before the peptides were added. B. sporothermodurans IC4 and B. cereus 4153 were first incubated with the peptides at 4°C for 2 weeks then moved to 30°C and incubated overnight. The diameters of the halos were measured.
(§3) The antimicrobial activity of the hinge region analogs in solid media were tested by an agar well diffusion assay. The diameters of the halos were measured and the residual activity of the analogs were estimated according to the formula of the relationship between the concentration of nisin and the sizes of halos. We made use of the fact that the size of the halo is directly related to the log of nisin concentration. Of course this is an estimate of activity of the variants because any changes in diffusion of the variant bacteriocin or growth rates of indicator bacteria during the assay could also affect the size of the halo. (Table 5 and Supplementary Figure 1). The plates were shown in supplementary data (Supplementary Figures 2–8). […] And against L. lactis at 20°C, the inhibition zone was larger than nisin. […] The M. luteus grows quite fast at room temperature and only the +2 variant retained 55% of the activity of nisin. […]
(§4) To evaluate the activity of nisin on the agar plate, an agar well diffusion assay with gradient of nisin against Lactococcus lactis ( with two plasmids) was performed ( Supplementary Figur e 1 A). The diameter of the halos were measured (Supplementary Figure 1B). […]
(§5) the concentration of nisin is in liner relationship with diameter of the halos ( Supplementary Fi g u re 1C). According to the formula (1) , the relative activity of the peptides compared to nisin can be calculated b y the formula ( 2) .
(§6) Supplementary Figure 1. Relationship between concentration of nisin and diameter of the halos. (A) Agar well diffusion assay. Gradient concentration of nisin were made and dissolved in 30µl 0.05% acetic acid. Lactococcus lactis ( with two plasmids) was cultured overnight and diluted 250 times with GM17 agar before added to the plate. The final concentration of the cells was about 2×10^6 cells/milliliter. The plate was incubated for 1 da y. Concentrations of nisin were labeled. (B) log10 of the concentrati ons and diameters of the halo. (C) A linear curve w as made betw een t he diameters of the halo and log10s of the concentration of nisin.
(§7) (1 picture or pasted object on this page, not shown here)
(§8) Last Name a uthor 1 et al. Running Title
(§9) C = concentration of nisin d° = diameter of the halo of wild t ype […]

S. aureus = experiment: Agar well diffusion assay; type: cell-based, Staphylococcus aureus; details: 20 °C; estimated from halo diameter by nisin standard curve, relative to wt
Protocol: as §1, §2, §3, §4, §5
as §6, with “nisin. […]” for “nisin.”

L. lactis MG1363 = experiment: Agar well diffusion assay; type: cell-based, Lactococcus lactis; details: relative to wt
Protocol: as §1, §2, §3, §4, §5, §6, §7, §8, §9

M. luteus = experiment: Agar well diffusion assay; type: cell-based, Micrococcus luteus; details: 20 °C; estimated from halo diameter by nisin standard curve, relative to wt
Protocol: as §1, §2, §3, §4, §5
as §6, with “nisin. […]” for “nisin.”

Bacillus cereus 4147 = experiment: MIC in liquid culture; type: cell-based; details: MIC value of nisin divided by that of the analog
Protocol: as §1
(§10) The indicator strains were cultured until OD (600 nm) reached 0.5. Before MIC value test, the culture was diluted 1000 times to make the concentration of cells around 5 × 10^5 per milliliter. The test was performed using a temperature controlled plate reader [Tecan200 (Tecan Group AG)] and 96 well plate (Greiner Bio-one). 180 μl indicator strain culture mixed with 20 μl hinge region analogs with final concentration from 0.031 μg/ml–32 μg/ml was incubated at 30°C or 37°C for 18 h. OD (600 nm) was checked every 30 min. For aerobic strains, 2 min of shaking was performed before every check. The concentration of peptide without observed growth of indicator strains was considered as the MIC value.

Listeria monocytogenes = experiment: MIC in liquid culture; type: cell-based; details: MIC value of nisin divided by that of the analog
Protocol: as §1, §10

Staphylococcus aureus = experiment: MIC in liquid culture; type: cell-based; details: MIC value of nisin divided by that of the analog
Protocol: as §1, §10

Bacillus cereus 4153 = experiment: MIC in liquid culture; type: cell-based; details: MIC value of nisin divided by that of the analog
Protocol: as §1, §10

[1] = test system: Lactococcus lactis MG1363; experiment: MIC in liquid culture; type: cell-based; details: MIC value of nisin divided by that of the analog
Protocol: as §1, §10

[2] = test system: Streptococcus pneumoniae R6; experiment: MIC in liquid culture; type: cell-based; details: MIC value of nisin divided by that of the analog
Protocol: as §1, §10

Micrococcus luteus = experiment: MIC in liquid culture; type: cell-based; details: MIC value of nisin divided by that of the analog
Protocol: as §1, §10

[3] = test system: Bacillus cereus (L′29) 16; experiment: MIC in liquid culture; type: cell-based; details: MIC value of nisin divided by that of the analog
Protocol: as §1, §10

L. monocytogenes = experiment: Agar well diffusion assay; type: cell-based, Listeria monocytogenes; details: estimated from halo diameter by nisin standard curve, relative to wt
Protocol: as §1, §2, §3, §4, §5, §6, §7, §8, §9

B. sporothermodurans IC4 = experiment: Agar well diffusion assay; type: cell-based, Bacillus sporothermodurans; details: 30 °C; estimated from halo diameter by nisin standard curve, relative to wt
Protocol: as §1
as §2, with “B. sporothermodurans IC4 and B. cereus 4153 were first incubated with the peptides at 4°C for 2 weeks then moved to 30°C and incubated overnight.” left out
The antimicrobial activity of the hinge region analogs in solid media were tested by an agar well diffusion assay. The diameters of the halos were measured and the residual activity of the analogs were estimated according to the formula of the relationship between the concentration of nisin and the sizes of halos. […]
as §4
the concentration of nisin is in liner relationship with diameter of the halos ( Supplementary Fi g u re 1C). According to the formula (1) , the relative activity of the peptides compared to nisin can be calculated b y the formula ( 2) . […]

[4] = test system: Bacillus sporothermodurans IC4; experiment: MIC in liquid culture; type: cell-based; details: MIC value of nisin divided by that of the analog
Protocol: as §1, §10

[5] = test system: Enterococcus faecalis VE14089; experiment: MIC in liquid culture; type: cell-based; details: MIC value of nisin divided by that of the analog
Protocol: as §1, §10

[6] = 20 °C, estimated from halo diameter by nisin standard curve (halo diameter vs log of nisin concentration)
[7] = 30 °C, estimated from halo diameter by nisin standard curve

Row | Structure (SMILES) | Residual activity (E. faecalis VE14089; 20 °C) | Residual activity (E. faecalis VE14089; 37 °C) | Residual activity (S. aureus) | Residual activity (L. lactis MG1363; [6]) | Residual activity (M. luteus) | Residual activity of variants compared to nisin (Bacillus cereus 4147) | Residual activity of variants compared to nisin (Listeria monocytogenes) | Residual activity of variants compared to nisin (Staphylococcus aureus) | Residual activity of variants compared to nisin (Bacillus cereus 4153) | Residual activity of variants compared to nisin [1] | Residual activity of variants compared to nisin [2] | Residual activity of variants compared to nisin (Micrococcus luteus) | Residual activity of variants compared to nisin [3] | Residual activity (L. monocytogenes; 20 °C) | Residual activity (E. faecalis VE14089; 30 °C) | Residual activity (B. sporothermodurans IC4) | Residual activity (L. lactis MG1363; [7]) | Residual activity of variants compared to nisin [4] | Residual activity of variants compared to nisin [5] | Residual activity (L. monocytogenes; 30 °C)
1 | C=C(NC(=O)[C@@H](NC(=O)[C@H](Cc1c[nH]cn1)NC(=O)[C@@H](NC(=O)[C@H](CO)NC(=O)[C@@H]1CS[C@@H](C)[C@H]2NC(=O)[C@H](C)NC(=O)[C@H](NC(=O)[C@H](CCCCN)NC(=O)[C@H](CCSC)NC(=O)[C@H](CC(C)C)NC(=O)[C@H](CC(N)=O)NC(=O)[C@@H]3CS[C@@H](C)[C@@H](NC(=O)[C@H](CCCCN)NC(=O)[C@@H]4CS[C@@H](C)[C@@H](NC(=O)[C@@H]5CSC[C@@H](NC(=O)/C(=C/C)NC(=O)[C@@H](N)[C@@H](C)CC)C(=O)N[C@@H]([C@@H](C)CC)C(=O)NC(=C)C(=O)N[C@@H](CC(C)C)C(=O)N5)C(=O)N5CCC[C@H]5C(=O)NCC(=O)N4)C(=O)NCC(=O)N[C@@H](C)C(=O)N[C@@H](CC(C)C)C(=O)N[C@@H](CCSC)C(=O)NCC(=O)N3)[C@H](C)SC[C@H](NC2=O)C(=O)N[C@@H](Cc2c[nH]cn2)C(=O)N1)[C@@H](C)CC)C(C)C)C(=O)N[C@@H](CCCCN)C(=O)O [+1] | 72% | 82% | 27% | 122% | 9% | 25% | 25% | 6% | 25% | 25% | 17% | 25% | 25% | 72% | – | – | – | – | – | –
2 | C=C(NC(=O)[C@@H](NC(=O)[C@H](Cc1c[nH]cn1)NC(=O)[C@@H](NC(=O)[C@H](CO)NC(=O)[C@@H]1CS[C@@H](C)[C@H]2NC(=O)[C@H](C)NC(=O)[C@H](NC(=O)[C@H](CCCCN)NC(=O)[C@H](CCSC)NC(=O)[C@H](CC(C)C)NC(=O)[C@@H](NC(=O)[C@@H](NC(=O)[C@H](CC(N)=O)NC(=O)[C@@H]3CS[C@@H](C)[C@@H](NC(=O)[C@H](CCCCN)NC(=O)[C@@H]4CS[C@@H](C)[C@@H](NC(=O)[C@@H]5CSC[C@@H](NC(=O)/C(=C/C)NC(=O)[C@@H](N)[C@@H](C)CC)C(=O)N[C@@H]([C@@H](C)CC)C(=O)NC(=C)C(=O)N[C@@H](CC(C)C)C(=O)N5)C(=O)N5CCC[C@H]5C(=O)NCC(=O)N4)C(=O)NCC(=O)N[C@@H](C)C(=O)N[C@@H](CC(C)C)C(=O)N[C@@H](CCSC)C(=O)NCC(=O)N3)[C@@H](C)CC)C(C)C)[C@H](C)SC[C@H](NC2=O)C(=O)N[C@@H](Cc2c[nH]cn2)C(=O)N1)[C@@H](C)CC)C(C)C)C(=O)N[C@@H](CCCCN)C(=O)O [+3] | 6% | 14% | 0% | 5% | 7% | 25% | <25% | <3% | 13% | 13% | 13% | 25% | 13% | 3% | 9% | 10% | 3% | 17% | <21% | 3%
3 | C=C(NC(=O)[C@@H](NC(=O)[C@H](Cc1c[nH]cn1)NC(=O)[C@@H](NC(=O)[C@H](CO)NC(=O)[C@@H]1CS[C@@H](C)[C@H]2NC(=O)[C@H](C)NC(=O)[C@H](NC(=O)[C@H](CC(N)=O)NC(=O)[C@@H]3CS[C@@H](C)[C@@H](NC(=O)[C@H](CCCCN)NC(=O)[C@@H]4CS[C@@H](C)[C@@H](NC(=O)[C@@H]5CSC[C@@H](NC(=O)/C(=C/C)NC(=O)[C@@H](N)[C@@H](C)CC)C(=O)N[C@@H]([C@@H](C)CC)C(=O)NC(=C)C(=O)N[C@@H](CC(C)C)C(=O)N5)C(=O)N5CCC[C@H]5C(=O)NCC(=O)N4)C(=O)NCC(=O)N[C@@H](C)C(=O)N[C@@H](CC(C)C)C(=O)N[C@@H](CCSC)C(=O)NCC(=O)N3)[C@H](C)SC[C@H](NC2=O)C(=O)N[C@@H](Cc2c[nH]cn2)C(=O)N1)[C@@H](C)CC)C(C)C)C(=O)N[C@@H](CCCCN)C(=O)O [−2] | 36% | 76% | 16% | 120% | 0% | <13% | <25% | <3% | <13% | 6% | 13% | <25% | <13% | 82% | 77% | – | 91% | 13% | <6% | 76%
